Tests used:
IDO in Hela cells = molecular target: T1, IDO in Hela cells (Homo sapiens, UniProt P14902); assay: Test of cellular activity (kynurenine formation in interferon γ stimulated Hela cells); type: cell-based; conditions: head prints IPS cells, method: Hela cells, 48 h incubation, read at 480 nm
T1 construct: endogenous in cells; host or cells: HeLa cells stimulated with human interferon γ
Description: (3) Test Method of Cellular Activity
Hela cells (80 μL) was inoculated on a 96-well plate (5×10^3 for each well) to grow overnight. After the compound was diluted the next day, 1 μL of diluent and 100 μL of culture medium which contains human interferon γ (final concentration: 50 ng/m) were added into the 96-well plate to make the final volume reach […]. After incubating for 48 h, 80 μL of supernate was transferred from each well to a new […]. 10 μL 6.1N trichloroacetic acid was added into each well for mixing and incubation at 50° C. for 30 min, and […] N formyl-kynurenin into kynurenine. The reaction mixture was centrifuged at 2,500 rpm for 10 min, 70 μL of supernatant of each well was transferred to a new 96-well plate and mixed with 100 μL of 2% (w/v) dimethylaminobenzaldehyde acetic acid solution. After placing for 5-10 min, measurement was carried out at 480 nm with the SPECTRAmax i13 reader.

IDO enzyme = molecular target: T2, IDO enzyme (Homo sapiens, UniProt P14902); assay: IDO enzyme inhibitory activity test; type: biochemical; conditions: recombinant IDO, D-Trp substrate, reading at 321 nm for 40 min
T2 construct: made in house; host or cells: E. coli BL21 (pET28a-IDO plasmid)
Description: (1) Induced Expression and Purification Method of IDO Protein
Firstly, DO gene was amplified with PCR, and the amplified PCR product was recycled. Digestion (2 h under 37° C.), gel running and recycling were carried out on the pET28a plasmid (purchased from Shanghai Baomanbio Co., Ltd.) and IDO gel with two restriction enzymes (EcoR I and Xho I). T4 ligase was connected with the product overnight, added into DH5α competence, placed on the ice for 30 min and subjected to thermal shock at 42° C. for 90 s.
BL21 which contained pET28a-IDO plasmid was shaken vigorously at 37° C. till OD600 was 0.6-0.8, added into hemin (final concentration: 40 μM) and 0.5 mM IPTG (isopropyl-3-D-IPTG) and induced under 16° C. for 20 h; after induction, thallus were collected centrifugally at 4° C. and 6,000 rpm, washed with 50 mM PBS (pH 7.5) and collected again centrifugally.
The collected thallus were suspended again with buffer solution (50 mM PBS pH 7.5). An appropriate amount of 100×PMSF was added. The thallus were disrupted with cell disruption instrument (1,400 bar) at 4° C. for three times. The split bacteria were centrifuged at 18,000×g for 45 min. The sediment was removed but supernatant was retained and filtered with a 0.45 μm film at 4° C.; the nickel column was balanced with lysis buffer (50 mM PBS pH7.5) by 3 column volumes.
The supernatant was loaded on the nickel column and washed with wash solution (50 mM PBS pH7.5, 50 mM imidazole) by 4 column volume. Finally, protein was eluted with eluant (50 mM PBS pH7.5, 250 mM imidazole); dialyzed for 6 h with dialysis solution (50 mM PBS pH7.5), concentrated, sub-packaged, quickly frozen with liquid nitrogen and stored at −80° C. for backup.
(2) Test Method for IDO Enzyme Inhibitory Activity
Firstly, the compound was diluted by triple gradient. 1 μL of each concentration was added into a 96-well plate; 50 μL of IDO Enzyme solution PBS (pH 7.5; final concentration: 50 mM) was added: 25 μL of substrate 1 (methylene blue, final concentration: […]; catalase, final concentration: 0.2 μg/L; PBS (pH 7.5; final concentration: 50 mM) mixture and 25 μL of substrate 2 (D-Trp, final concentration: 1.5 mM; sodium ascorbate, final concentration: 20 mM; PBS (pH 7.5), final concentration 50 mM) mixture were added for starting the reaction. Finally, OOD321 nm reading was carried out for 40 min.

T2 sequence (P14902 whole entry): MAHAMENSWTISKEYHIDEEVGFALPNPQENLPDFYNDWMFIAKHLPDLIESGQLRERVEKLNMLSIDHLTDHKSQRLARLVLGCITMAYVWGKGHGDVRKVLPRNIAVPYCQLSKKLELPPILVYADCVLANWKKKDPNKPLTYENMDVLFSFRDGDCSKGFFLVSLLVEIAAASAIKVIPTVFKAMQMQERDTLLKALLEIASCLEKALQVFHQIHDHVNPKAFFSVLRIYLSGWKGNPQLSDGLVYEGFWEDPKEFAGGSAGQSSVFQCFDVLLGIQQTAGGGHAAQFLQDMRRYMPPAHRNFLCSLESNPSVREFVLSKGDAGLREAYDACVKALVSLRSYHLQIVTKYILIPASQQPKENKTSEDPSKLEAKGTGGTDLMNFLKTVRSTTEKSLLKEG
T1 sequence (P14902 whole entry): as above

SMILES	IC50 (IDO in Hela cells) [nM]	IC50 (IDO enzyme) [nM]
O=C(Nc1ccc(Cl)cc1)C1CC2(C1)CC(c1ccnc3ccc(F)cc13)C2 (racemic) [Example 3, (±) N-(4-chlorophenyl)-6-(6-fluoroquinolin-4-yl)spiro[3.3]heptane-2-carboxamide]	> 3	630
O=C(Nc1ccc(Cl)cc1)C1CC12CCC(c1ccnc3ccc(F)cc13)CC2 (racemic) [Example 4, (±)-(cis/trans)-N-(4-chlorophenyl)-6-(6-fluoroquinolin-4-yl)spiro[2.5]octane-1-carboxamide]	22	160
O=C(Nc1ccc(F)cc1)C1CC12CCC(c1ccnc3ccc(F)cc13)CC2 (racemic) [Example 5, (±)-(cis/trans)-N-(4-fluorophenyl)-6-(6-fluoroquinolin-4-yl)spiro[2.5]octane-1-carboxamide]	> 3	330
O=C(Nc1ccc(C(F)(F)F)cc1)C1CC12CCC(c1ccnc3ccc(F)cc13)CC2 (racemic) [Example 6, (±)-(cis/trans)-6-(6-fluoroquinolin-4-yl)-N-(4-trifluoromethyl)phenyl)spiro[2.5]octane-1-carboxamide]	> 4	470
O=C(NC1CC12CCC(c1ccnc3ccc(F)cc13)CC2)c1ccc(Cl)cc1 (racemic) [Example 8, (±)-(cis/trans)-4-chloro-N-(6-(6-fluoroquinolin-4-yl)spiro[2.5]octan-1-yl)benzamide]	> 30	990
O=C(Nc1ccc(Br)cc1)C1CC2(CCC(c3ccnc4ccc(F)cc34)CC2)C1 (racemic) [Example 18, (±) N-(4-bromophenyl)-7-(6-fluoroquinoline-4-yl)spiro[3.5]nonane-2-carboxamide]	2.52	200
O=C(Nc1ccc(F)cc1)C1CC2(CCC(c3ccnc4ccc(F)cc34)CC2)C1 (racemic) [Example 19, (±) N-(4-fluorophenyl)-7-(6-fluoroquinolin-4-yl)spiro[3.5]nonane-2-carboxamide]	3.36	400
O=C(NC1CC2(CCC(c3ccnc4ccc(F)cc34)CC2)C1)c1ccc(Br)cc1 (racemic) [Example 20, (±) 4-bromo-N-(7-(6-fluoroquinolin-4-yl)spiro[3.5]nonan-2-yl)benzamide]	> 10	2420
O=C(NC1CC2(CCC(c3ccnc4ccc(F)cc34)CC2)C1)c1ccc(F)cc1 (racemic) [Example 21, (±) 4-fluoro-N-(7-(6-fluoroquinolin-4-yl)spiro[3.5]nonan-2-yl)benzamide]	> 10	480

Second part, the compound after the results:

IC50 (IDO in Hela cells) [nM]	IC50 (IDO enzyme) [nM]	SMILES
> 50	1300	O=C(Nc1ccc(Cl)cc1)C1CC12CCC(c1ccnc3ccccc13)CC2 (racemic) [Example 2A, (±)-(cis/trans)-N-(4-chlorophenyl)-6-(quinolin-4-yl)spiro[2.5]octane-1-carboxamide]
> 30	1180	O=C(NC1CCC12CCC(c1ccnc3ccc(F)cc13)CC2)c1ccc(Cl)cc1 (racemic) [Example 12B, (±) 4-chloro-N-(7-(6-fluoroquinolin-4-yl)spiro[3.5]nonan-1-yl)benzamide]
> 3	520	O=C(Nc1ccc(Cl)cc1)C1CCC12CCC(c1ccnc3ccc(F)cc13)CC2 (single isomer, unassigned) [Example 10A, (±) N-(4-chlorophenyl)-7-(6-fluoroquinolin-4-yl)spiro[3.5]nonane-1-carboxamide]
> 10	3660	O=C(Nc1ccc(Cl)cc1)C1CC2(CCC(c3ccnc4ccc(F)cc34)CC2)C1 (single isomer, unassigned) [Example 15A, N-(4-chlorophenyl)-7-(6-fluoroquinolin-4-yl)spiro[3.5]nonane-2-carboxamide]
2.53	400	O=C(Nc1ccc(Cl)cc1)C1CC2(CCC(c3ccnc4ccc(F)cc34)CC2)C1 (single isomer, unassigned) [Example 15B, N-(4-chlorophenyl)-7-(6-fluoroquinolin-4-yl)spiro[3.5]nonane-2-carboxamide]
